Patent US9175013B2, “Fused aminodihydrothiazine derivatives” (Eisai R&D Management Co., Ltd., priority 2011, dated 2015)
Read-outs that look alike come from different tables or passages of the source.

Legend:
Aβ40 = assay: Amyloid detection: Aβ40 in rat brain and CSF after oral dosing (Wako ELISA); type: in vivo, Sprague Dawley rat; settings: 10 mg/kg p.o.
Description: Male Sprague Dawley rats were acquired from Charles River UK Ltd. (Margate, UK) and housed according to UK Home Office guidelines. Drugs were made up to the appropriate concentrations in 0.5% methyl cellulose. Animals were dosed orally (2 mL/kg) by gavage at the doses outlined in Tables 1 to 4 below. At the time points post-dosing, specified in the Tables 1 to 4 below the animals were administered an i.p. injection of sodium pentobarbitone (approximately 330 mg/kg for terminal anaesthesia). Using a guillotine, the animals were decapitated and trunk blood collected into 15 ml Falcon tubes containing 100 IU heparin. Blood was vortexed followed by centrifugation at 6000 rpm, 4° C. for 5 minutes. Plasma was collected for DMPK and ELISA assays and stored at −80° C. until use. Brains were dissected out and divided along the midline, weighed and stored at −80° C. until further use. Amyloid Detection 100 ml of chilled 0.2% diethyl amine (DEA) in 50 mM NaCl (pH 10) was freshly prepared and 1 ml/25 mg brain tissue was added to each hemisphere (i.e. 40× brain volume). The brains were immediately homogenized using a Polytron PT 1200 for 1.5 minutes and samples left to incubate on ice for one hour after homogenisation. 3 ml of the homogenate was transferred to a polyallomer tube (Beckman #362333) and spun at 133000×g (55,000 rpm) for 45 min at 4° C. The supernatant was then neutralised to pH 8-8.3 by adding 1/10 volume 0.5M Tris/HCl, pH 6.8. The samples can be used fresh or snap frozen on dry-ice and stored at −80° C. until required for analysis The Wako Aβ40 ELISA kit (Code No. 294-62501) uses the monoclonal antibody BNT77, raised against epitope Aβ(11-28) and the monoclonal antibody BA27, which specifically detects the C-terminal portion of Aβ40. This kit is used for the quantitative determination of human or rat Aβ(1-40) and also N-terminally truncated Aβ40 species (Aβ(x-40)) in biological matrices such as tissue culture medium, tissue homogenate, CSF and plasma. For analysis, plasma and brain samples are diluted 1:1 with the standard diluent contained in the kit and CSF samples are diluted 1:8 with the standard diluent contained in the kit. The assay is carried out according to manufacturers instructions and samples are analysed in duplicate. Data is analysed using Microsoft Excel 2003 and statistical analysis is carried out using Genstat 9th Edition.

[1] = Plasma protein binding (PPB), rapid equilibrium dialysis; type: in vitro ADME; settings: male, Sprague Dawley, rat, 37° C., 6 h dialysis
Description: Method for Determination of Plasma Protein Binding (PPB) and Brain Tissue Binding (BTB) Compound Preparation • Compounds were dissolved in DMSO to give a 1 mg free base/mL solution, before further dilution to 100 μg/mL in acetonitrile (100 μL of 1 mg/mL into 900 μL acetonitrile). Matrix Preparation • On the morning of dialysis, control male Sprague Dawley rat plasma and brain, previously stored at −80° C. were thawed at room temperature. Plasma was checked for pH and if necessary adjusted to 7.4 with 1M HCl. Plasma was then centrifuged (2000 g for 10 min) and the brains diluted with 2 mL of Phosphate Buffered Saline (pH 7.4) per gram of tissue and homogenised using a mechanical homogeniser. An aliquot (10 μL) of the 100 μg/mL acetonitrile compound solution was then added to 1 mL of plasma and brain homogenate and vortex mixed to give a final compound concentration of 1 μg/mL in matrix. RED Plate Preparation • The Rapid Equilibrium Dialysis (RED) plate (Thermo Scientific) was prepared in accordance with the manufacturers guidelines i.e. the base plate was soaked in 20% (v/v) ethanol for 10 min and then rinsed twice with deionised water before being allowed to dry. The base plate was then filled with the appropriate number of disposable inserts (n=3 per compound) (Thermo Scientific) and matrix containing 1 μg/mL compound added into the matrix chamber of the inserts (200 μL) and an aliquot (350 μL) of PBS added to the buffer chamber. The plate was then covered with an adhesive and incubated in air at 37° C. for 6 h with 130 rpm agitation. Sampling • Following the 6 h incubation, the seal was removed and an aliquot (50 μL) taken from the PBS chambers and dispensed into Micronics tubes. Also, an aliquot (50 μL) was removed from the matrix chambers and placed into separate Micronics tubes. Plasma and brain was then matrix matched with 50 μL of drug-free PBS and the PBS samples with 50 μL of the corresponding drug-free matrix, to give equal final compositions and volumes […]. Sample Analysis • Samples were vortex mixed and an aliquot (300 μL) of acetonitrile containing 0.1% formic acid and 100 ng/mL of an appropriate internal standard added. Samples were then mixed and centrifuged (2000 g for 15 min) and an aliquot of the supernatant (100 μL) removed into a 96-deep well plate and diluted with an equal volume of water ready for analysis by LC-MS/MS. • The following data was obtained for the following compounds in the above assay (Table 5).

[2] = pH 7.4, 1 μg/mL in rat plasma, mean of n = 3, read-out: Rat PPB (%) (converted)
[3] = pH 7.4, fraction unbound, 1 μg/mL in rat plasma, mean of n = 3, read-out: Rat Plasma fu

SMILES	reduction of Aβ40 in the CSF (Aβ40; 4 hours) [%]	reduction of Aβ40 in the brain (Aβ40; 4 hours) [%]	reduction of Aβ40 in the CSF (Aβ40; 6 hours) [%]	reduction of Aβ40 in the brain (Aβ40; 6 hours) [%]	fraction unbound at 6 h, 1 μg/mL [1, 2]	fraction unbound at 6 h, 1 μg/mL [1, 3]
COc1cnc(C(=O)Nc2ccc(F)c([C@]34CO[C@H](CF)[C@H]3CSC(N)=N4)c2)cn1 [Example 2, N-(3-((4aS,5S,7aS)-2-amino-5-(fluoromethyl)-4a,5,7,7a-tetrahydro-4H-furo[3,4-d][1,3]thiazin-7a-yl)-4-fluorophenyl)-5-methoxypyrazine-2-carboxamide]	85	63	69	65	0.251	0.252
COc1cnc(C(=O)Nc2ccc(F)c([C@]34CO[C@H](C(F)F)[C@H]3CSC(N)=N4)c2)cn1 [Example 3, N-(3-((4aS,5S,7aS)-2-amino-5-(difluoromethyl)-4a,5,7,7a-tetrahydro-4H-furo[3,4-d][1,3]thiazin-7a-yl)-4-fluorophenyl)-5-methoxypyrazine-2-carboxamide]	75	58	71	61	0.143	0.143
COc1cnc(C(=O)Nc2cc(F)c(F)c([C@]34CO[C@H](CF)[C@H]3CSC(N)=N4)c2)cn1 [Example 4, N-(3-((4aS,5S,7aS)-2-amino-5-(fluoromethyl)-4a,5,7,7a-tetrahydro-4H-furo[3,4-d][1,3]thiazin-7a-yl)-4,5-difluorophenyl)-5-methoxypyrazine-2-carboxamide]	67	51	63	42	0.13	0.13
